Toxic doses and inconclusive results are not listed. The calls were made as follows: active = survival T/C of 150% or more; inactive = T/C below 125% in these data.
Tested on: P388 leukemia ip, CD2F1 mice, survival T/C
Assay: NCI In Vivo Anticancer Drug Screen. Data for tumor model P388 Leukemia (intraperitoneal) in CD2F1 (CDF1) mice
Details: endpoint: median survival time, higher = longer survival
Method in brief: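 Mice carrying the transplanted tumor received test compound or vehicle. Survival was recorded in each group, and the value is the treated-group measurement divided by that of the vehicle-treated control group.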

[1] = dose: 50.0 mg/kg/injection, schedule: Q01DX005 (ip), vehicle: saline with Tween-80
[2] = dose: 100.0 mg/kg/injection, schedule: Q01DX005 (ip), vehicle: saline with Tween-80
[3] = dose: 200.0 mg/kg/injection, schedule: Q01DX005 (ip), vehicle: saline with Tween-80
[4] = dose: 50.0 mg/kg/injection, schedule: Q01DX005 (ip), vehicle: Klucel (hydroxypropylcellulose) (HPC)
[5] = dose: 100.0 mg/kg/injection, schedule: Q01DX005 (ip), vehicle: Klucel (hydroxypropylcellulose) (HPC)
[6] = dose: 200.0 mg/kg/injection, schedule: Q01DX005 (ip), vehicle: Klucel (hydroxypropylcellulose) (HPC)
[7] = dose: 50.0 mg/kg/injection, schedule: Q01DX009 (ip), vehicle: saline with Tween-80
[8] = dose: 100.0 mg/kg/injection, schedule: Q01DX009 (ip), vehicle: saline with Tween-80
[9] = dose: 100.0 mg/kg/injection, schedule: Q04DX003 (ip), vehicle: Klucel (hydroxypropylcellulose) (HPC)
[10] = dose: 200.0 mg/kg/injection, schedule: Q04DX003 (ip), vehicle: Klucel (hydroxypropylcellulose) (HPC)
[11] = dose: 400.0 mg/kg/injection, schedule: Q04DX003 (ip), vehicle: Klucel (hydroxypropylcellulose) (HPC)
[12] = dose: 50.0 mg/kg/injection, schedule: Q01DX009 (ip), vehicle: Klucel (hydroxypropylcellulose) (HPC)
[13] = dose: 100.0 mg/kg/injection, schedule: Q01DX009 (ip), vehicle: Klucel (hydroxypropylcellulose) (HPC)
[14] = dose: 200.0 mg/kg/injection, schedule: Q01DX009 (ip), vehicle: Klucel (hydroxypropylcellulose) (HPC)

Measured: T/C

COc1cc2c(cc1O)C(c1cc(O)c(O)c(OC)c1)C(O)(C(=O)O)C(CO)C2O (stereo not given)
inactive: [1] 100 % of control | [2] 101 % of control | [3] 99 % of control

CN1c2ccc(C3N(C(=O)C(F)(F)F)C=CN3C(=O)C(F)(F)F)cc2Sc2cc(C3N(C(=O)C(F)(F)F)C=CN3C(=O)C(F)(F)F)ccc21
inactive: dose: 60.0 mg/kg/injection, schedule: Q01DX005 (ip), vehicle: saline with Tween-80 91 % of control | dose: 120.0 mg/kg/injection, schedule: Q01DX005 (ip), vehicle: saline with Tween-80 89 % of control | dose: 240.0 mg/kg/injection, schedule: Q01DX005 (ip), vehicle: saline with Tween-80 91 % of control

CCCCNC(=O)Nc1cccc2c(O)cccc12
inactive: dose: 6.25 mg/kg/injection, schedule: Q01DX009 (ip), vehicle: DMSO 94 % of control | dose: 12.5 mg/kg/injection, schedule: Q01DX009 (ip), vehicle: DMSO 87 % of control | dose: 25.0 mg/kg/injection, schedule: Q01DX009 (ip), vehicle: DMSO 87 % of control

COC(=O)CCc1cc(=O)oc2c(I)c(O)cc(O)c12
inactive: dose: 8.75 mg/kg/injection, schedule: Q01DX005 (ip), vehicle: Klucel (hydroxypropylcellulose) (HPC) 99 % of control | dose: 17.5 mg/kg/injection, schedule: Q01DX005 (ip), vehicle: Klucel (hydroxypropylcellulose) (HPC) 93 % of control | dose: 35.0 mg/kg/injection, schedule: Q01DX005 (ip), vehicle: Klucel (hydroxypropylcellulose) (HPC) 101 % of control

Cc1cn2ccccc2c1-c1ccccc1
inactive: [1] 111 % of control | [2] 108 % of control | [3] 106 % of control

CC1(O)Cc2ccc3c(c2C(=O)C1O)C(=O)c1cccc(O)c1C3=O (stereo not given)
inactive: dose: 3.12 mg/kg/injection, schedule: Q01DX005 (ip), vehicle: distilled water + Tween-80 + alcohol 98 % of control | dose: 6.25 mg/kg/injection, schedule: Q01DX005 (ip), vehicle: distilled water + Tween-80 + alcohol 100 % of control | dose: 12.5 mg/kg/injection, schedule: Q01DX005 (ip), vehicle: distilled water + Tween-80 + alcohol 100 % of control | dose: 25.0 mg/kg/injection, schedule: Q01DX005 (ip), vehicle: distilled water + Tween-80 + alcohol 100 % of control

COc1ccc(C2(c3ccccc3)c3ccccc3C(=O)c3ccccc32)cc1
inactive: [4] 101 % of control | [5] 103 % of control | [6] 99 % of control

OCC12OCC(C=CC1O)O2 (stereo not given)
inactive: dose: 60.0 mg/kg/injection, schedule: Q01DX005 (ip), vehicle: saline 99 % of control | dose: 120.0 mg/kg/injection, schedule: Q01DX005 (ip), vehicle: saline 91 % of control | dose: 240.0 mg/kg/injection, schedule: Q01DX005 (ip), vehicle: saline 98 % of control

CC(CN(C)C)CN1c2ccccc2Sc2ccccc21 (stereo not given)
inactive: dose: 12.5 mg/kg/injection, schedule: Q04DX003 (ip), vehicle: saline with Tween-80 112 % of control | dose: 25.0 mg/kg/injection, schedule: Q04DX003 (ip), vehicle: saline with Tween-80 115 % of control | dose: 33.0 mg/kg/injection, schedule: Q04DX003 (ip), vehicle: saline with Tween-80 123 % of control | dose: 50.0 mg/kg/injection, schedule: Q04DX003 (ip), vehicle: saline with Tween-80 117 % of control

CN(c1ccc(Cc2ccc(N(C)S(C)(=O)=O)cc2)cc1)S(C)(=O)=O
inactive: dose: 50.0 mg/kg/injection, schedule: Q04DX002 (ip), vehicle: saline with Tween-80 110 % of control | dose: 100.0 mg/kg/injection, schedule: Q04DX002 (ip), vehicle: saline with Tween-80 101 % of control | dose: 200.0 mg/kg/injection, schedule: Q04DX002 (ip), vehicle: saline with Tween-80 94 % of control | dose: 400.0 mg/kg/injection, schedule: Q04DX002 (ip), vehicle: saline with Tween-80 92 % of control

O=C1c2cccc(NCCNCCO)c2C(=O)c2cccc(Cl)c21
inactive: dose: 5.0 mg/kg/injection, schedule: Q01DX009 (ip), vehicle: acid diluted with saline 98 % of control | dose: 10.0 mg/kg/injection, schedule: Q01DX009 (ip), vehicle: acid diluted with saline 113 % of control | dose: 20.0 mg/kg/injection, schedule: Q01DX009 (ip), vehicle: acid diluted with saline 115 % of control | dose: 40.0 mg/kg/injection, schedule: Q01DX009 (ip), vehicle: acid diluted with saline 113 % of control | dose: 80.0 mg/kg/injection, schedule: Q01DX009 (ip), vehicle: acid diluted with saline 124 % of control | dose: 160.0 mg/kg/injection, schedule: Q01DX009 (ip), vehicle: acid diluted with saline 120 % of control

O=NN(c1ccccc1)c1ccc([N+](=O)[O-])cc1
inactive: [7] 90 % of control | [8] 90 % of control

Cc1ccc(NC(=O)Oc2ccc(OCc3ccccc3)cc2)c([N+](=O)[O-])c1
inactive: [7] 99 % of control | [8] 97 % of control | dose: 200.0 mg/kg/injection, schedule: Q01DX009 (ip), vehicle: saline with Tween-80 95 % of control

COc1ccc(CCN/C=C2\Cc3c(Cl)cccc3C2=O)cc1OC
inactive: [9] 100 % of control | [10] 93 % of control | [11] 99 % of control

CN(C)CCCN1c2ccccc2Sc2ccccc21
inactive: dose: 18.75 mg/kg/injection, schedule: Q01DX009 (ip), vehicle: saline with Tween-80 111 % of control | dose: 18.75 mg/kg/injection, schedule: Q01DX009 (ip), vehicle: saline 112 % of control | dose: 37.5 mg/kg/injection, schedule: Q01DX009 (ip), vehicle: saline with Tween-80 123 % of control | dose: 37.5 mg/kg/injection, schedule: Q01DX009 (ip), vehicle: saline 109 % of control

O=[N+]([O-])c1ccc(O)c(CN2CCC(O)(c3ccccc3)CC2)c1
inactive: [9] 108 % of control | [10] 99 % of control | [11] 107 % of control

O=C1OCCOCCOCCOCCOCCOC(=O)C1c1ccccc1
inactive: [12] 102 % of control | [13] 101 % of control | [14] 100 % of control

Cc1c(Cc2ccccc2)[n+](=O)c2ccccc2n1[O-]
inactive: [4] 92 % of control | [5] 95 % of control | [9] 100 % of control | dose: 100.0 mg/kg/injection, schedule: Q04DX003 (ip), vehicle: saline with Tween-80 101 % of control | [6] 99 % of control | [10] 98 % of control | dose: 200.0 mg/kg/injection, schedule: Q04DX003 (ip), vehicle: saline with Tween-80 110 % of control | dose: 400.0 mg/kg/injection, schedule: Q01DX005 (ip), vehicle: Klucel (hydroxypropylcellulose) (HPC) 94 % of control | [11] 104 % of control | dose: 400.0 mg/kg/injection, schedule: Q04DX003 (ip), vehicle: saline with Tween-80 118 % of control

Oc1ccccc1O.[O-]c1ccccc1[O-].[O-]c1ccccc1[O-].[O]=[V+2]
inactive: dose: 5.0 mg/kg/injection, schedule: Q01DX009 (ip), vehicle: saline 100 % of control | dose: 5.0 mg/kg/injection, schedule: Q04DX003 (ip), vehicle: saline 95 % of control | dose: 10.0 mg/kg/injection, schedule: Q01DX009 (ip), vehicle: saline 90 % of control | dose: 10.0 mg/kg/injection, schedule: Q04DX003 (ip), vehicle: saline 118 % of control | dose: 20.0 mg/kg/injection, schedule: Q04DX003 (ip), vehicle: saline 100 % of control

O=C(Oc1ccccc1)OC1CCCN(C(=O)Oc2ccccc2)C1 (stereo not given)
inactive: [12] 93 % of control | [13] 93 % of control | [14] 93 % of control

— PubChem BioAssay AID330 (DTP/NCI, 2004)
